Measured values published in US20070203158A1, “Fungicidal Mixtures” (BASF AKTIENGESELLSCHAFT, priority 2004, published 2007).

Tested on: Plasmopara viticola
Assay: Activity against peronospora of grapevines caused by Plasmopara viticola (protective spray on potted vines)
Format: in vivo
Conditions: individual active compound, untreated control 89% infection
Method: The active compounds, separately or jointly, were prepared as a stock solution comprising 0.25% by weight of active compound in acetone or DMSO. 1% by weight of the emulsifier Uniperol® EL (wetting agent having emulsifying and dispersant action based on ethoxylated alkylphenols) was added to this solution, and the mixture was diluted with water to the desired concentration.
Leaves of potted vines were sprayed to runoff point with an aqueous suspension having the concentration of active compound stated below. The next day, the undersides of the leaves were inoculated with an aqueous sporangia suspension of Plasmopara viticola. The grapevines were then initially placed in a water-vapor-saturated chamber at 24° C. for 48 hours and then in a greenhouse at 20-30° C. for 5 days. After this period of time, the plants were again placed in a humid chamber for 16 hours to promote sporangiophore eruption. The extent of the development of the disease on the undersides of the leaves was then determined visually.
The visually determined percentages of infected leaf areas were converted into efficacies in % of the untreated control:
The efficacy (E) is calculated as follows using Abbot's formula: E=(1−α/β)·100 • α corresponds to the fungicidal infection of the treated plants in % and • β corresponds to the fungicidal infection of the untreated (control) plants in %
An efficacy of 0 means that the infection level of the treated plants corresponds to that of the untreated control plants; an efficacy of 100 means that the treated plants are not infected.
The expected efficacies of mixtures of active compounds were determined using Colby's formula (Colby, S. R. “Calculating synergistic and antagonistic responses of herbicide combinations”, Weeds, 15, 20-22, 1967) and compared with the observed efficacies.
Colby's formula: E=x+y−x·y/100 • E expected efficacy, expressed in % of the untreated control, when using the mixture of the active compounds A and B at the concentrations a and b • x efficacy, expressed in % of the untreated control, when using the active compound A at the concentration a
y efficacy, expressed in % of the untreated control, when using the active compound B at the concentration b

In the case of `CO/C=C(/C(=O)OC)c1ccccc1COc1cccc(C(F)(F)F)n1` [compound II, methyl 3-methoxy-2-[2-(6-trifluoromethylpyridin-2-yloxymethyl)phenyl]acrylate], the “Efficacy in % of the untreated control” value (1 ppm in the spray liquor) is reported as 33% and the “Efficacy in % of the untreated control” value (4 ppm in the spray liquor) is reported as 66%.

For `CC1CCN(c2c(-c3c(F)cc(F)cc3F)c(Cl)nc3ncnn23)CC1` [compound I, 5-chloro-7-(4-methylpiperidin-1-yl)-6-(2,4,6-trifluorophenyl)-[1,2,4]tri-azolo[1,5-a]pyrimidine], the “Efficacy in % of the untreated control” value (1 ppm in the spray liquor) was 0% and the “Efficacy in % of the untreated control” value (4 ppm in the spray liquor) was 33%.
